Data published in patent US12692529B2, “Quantitative screen for the assessment of inter-individual variability in drug metabolism by the human gut microbiome” (The Trustees of Princeton University, priority 2020, dated 2026).

Key:
[1] = test system: ex vivo cultures of donor gut microbiome (BG medium); test: MDMQ-Screen 20-donor screen: drug depletion and metabolite production in ex vivo cultures, targeted metabolomics by HPLC-HRMS; conditions: for MDM in drug depletion across donors / MDM in metabolite production across donors / MDM (microbiome-derived metabolism) across donors: 20 donors, BG medium, drug 33 μM, 24-hour incubation; for MDM in drug depletion across donors: significant if FDR p<0.01 and depletion >50% vs controls; for MDM in metabolite production across donors: significant if FDR p<0.01 vs all three controls; for Pearson correlation coefficient of drug signal and sum of known metabolite signals (drug depletion vs metabolite production): all donor-drug ex vivo samples, known (quantified) metabolites only
[2] = test system: ex vivo cultures of donor gut microbiome (BG medium); test: Untargeted metabolomics with molecular ion networking for new metabolite discovery in the 20-donor screen; type: in vitro ADME, human
Experimental: In order to extract all features in a given sample, a batch recursive feature extraction method for small molecules and peptides within Profinder 8 (Agilent) can be used. The following settings in the method were changed from default: compound ion count threshold set to two ions, alignment retention time tolerance set to 0.2 min, minimum MFE score set to 90, minimum file prevalence set to 2, expected retention time set to ±1 min, retention time contribution to matching score set to 90, expected MS1 mass variation set to 10 ppm, expected retention time tolerance set to 0.2 min, absolute height threshold for EIC integration set to 2500 counts, and final absolute height threshold set to 5000. The resulting feature abundances were then analyzed in MATLAB. Any sample whose internal standard AUC is less than 10^6 was removed. Hypothesis testing was then performed using similar statistical methods as for metabolite production in the targeted metabolomics, except that the multiple hypothesis correction of Storey (Storey, 2002) was used in place of the Benjamini-Hochberg method and require a fold-change cut-off of two relative to all controls. […] All ions already quantified in the screen and all features that are statistically significant for more than one drug are removed. […]

Compound | MDM in drug depletion across donors [1] | MDM in metabolite production across donors [1] | further results
CCCCC(C)(O)C/C=C/[C@H]1[C@H](O)CC(=O)[C@@H]1CCCCCCC(=O)OC (mixture of isomers) [misoprostol] | consistently positive | – | –
CCCCCOC(=O)Nc1nc(=O)n([C@@H]2O[C@H](C)[C@@H](O)[C@H]2O)cc1F [capecitabine] | variable | variable | –
CC(C)/N=c1\cc2n(-c3ccc(Cl)cc3)c3ccccc3nc-2cc1Nc1ccc(Cl)cc1 [clofazimine] | variable | variable | –
O=C1CN=C(c2ccccc2Cl)c2cc([N+](=O)[O-])ccc2N1 [clonazepam] | consistently positive | consistently positive | –
C[C@]12CCC(=O)C=C1CC[C@@H]1[C@@H]2[C@@H](O)C[C@@]2(C)[C@H]1CC[C@]2(O)C(=O)CO [hydrocortisone] | variable | – | –
CC(=O)N1CCN(c2ccc(OCC3COC(Cn4ccnc4)(c4ccc(Cl)cc4Cl)O3)cc2)CC1 (stereo not drawn) [ketoconazole] | – | – | MDM (microbiome-derived metabolism) across donors [1]: consistently negative
C#C[C@]1(O)CC[C@H]2[C@@H]3CCC4=CC(=O)CC[C@@H]4[C@H]3CC[C@@]21CC [levonorgestrel] | variable | – | –
CC[C@H](C)C(=O)O[C@H]1C[C@@H](C)C=C2C=C[C@H](C)[C@H](CC[C@@H]3C[C@@H](O)CC(=O)O3)[C@H]21 [lovastatin] | variable | variable | –
COc1c(C)c2c(c(O)c1C/C=C(\C)CCC(=O)OCCN1CCOCC1)C(=O)OC2 [mycophenolate mofetil] | variable | variable | –
COC(=O)C1=C(C)NC(C)=C(C(=O)OCCN(C)Cc2ccccc2)C1c1cccc([N+](=O)[O-])c1 (stereo not drawn) [nicardipine] | – | – | Pearson correlation coefficient of drug depletion and metabolite production after inclusion of metabolites discovered by untargeted metabolomics ([1]; after inclusion of 11 additional metabolites, FDR corrected p=0.0102): −0.6; Pearson correlation coefficient of drug signal and sum of known metabolite signals (drug depletion vs metabolite production) [1]: −0.22; number of additional metabolites detected by the untargeted metabolomics pipeline [2]: 11
Cc1nc2n(c(=O)c1CCN1CCC(c3noc4cc(F)ccc34)CC1)CCCC2 [risperidone] | consistently positive | – | –
CCCN(CCC)CCc1cccc2c1CC(=O)N2 [ropinirole] | – | – | MDM (microbiome-derived metabolism) across donors [1]: consistently negative
CC(=O)S[C@@H]1CC2=CC(=O)CC[C@]2(C)[C@H]2CC[C@@]3(C)[C@@H](CC[C@@]34CCC(=O)O4)[C@H]12 [spironolactone] | consistently positive | variable | –
CC1=C(CC(=O)O)c2cc(F)ccc2/C1=C\c1ccc([S+](C)[O-])cc1 (stereo not drawn) [sulindac] | variable | variable | –
Cc1ccc(C(=O)c2cc(O)c(O)c([N+](=O)[O-])c2)cc1 [tolcapone] | – | consistently positive | –
Cc1cccc(Nc2ccncc2S(=O)(=O)NC(=O)NC(C)C)c1 [torsemide] | – | – | MDM (microbiome-derived metabolism) across donors [1]: consistently negative
O=C(CCCCCCC(=O)Nc1ccccc1)NO [vorinostat] | variable | – | Pearson correlation coefficient of drug signal and sum of known metabolite signals (drug depletion vs metabolite production) [1]: −0.91
